Experimental data taken from PubChem BioAssay AID248 (DTP/NCI, 2004).
“And” between values parts separate entries of the source, which are not always exact repeats. Equal values may be shown once. Toxic doses and inconclusive results are not listed. Rule as the data show it: active = T/C of 150% or more; inactive = T/C below 125%.

Tested on: L1210 leukemia ip in BDF1 mice, survival T/C
Assay: NCI In Vivo Anticancer Drug Screen. Data for tumor model L1210 Leukemia (intraperitoneal) in B6D2F1 (BDF1) mice
Conditions: endpoint: mean survival time, higher = longer survival
Summary of the method: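 Ratio derived from survival: compound-dosed mice over vehicle-dosed mice, all bearing a transplantable tumor.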

[1] = dose: 50.0 mg/kg/injection, schedule: Q01DX009 (ip), vehicle: Klucel (hydroxypropylcellulose) (HPC)
[2] = dose: 100.0 mg/kg/injection, schedule: Q01DX001 (ip), vehicle: other
[3] = dose: 100.0 mg/kg/injection, schedule: Q01DX009 (ip), vehicle: Klucel (hydroxypropylcellulose) (HPC)
[4] = dose: 200.0 mg/kg/injection, schedule: Q01DX001 (ip), vehicle: other
[5] = dose: 200.0 mg/kg/injection, schedule: Q01DX009 (ip), vehicle: Klucel (hydroxypropylcellulose) (HPC)
[6] = dose: 400.0 mg/kg/injection, schedule: Q01DX001 (ip), vehicle: other
[7] = dose: 100.0 mg/kg/injection, schedule: Q01DX001 (ip), vehicle: Klucel (hydroxypropylcellulose) (HPC)
[8] = dose: 100.0 mg/kg/injection, schedule: Q01DX001 (ip), vehicle: carboxymethylcellulose (CMC)
[9] = dose: 200.0 mg/kg/injection, schedule: Q01DX001 (ip), vehicle: carboxymethylcellulose (CMC)
[10] = dose: 400.0 mg/kg/injection, schedule: Q01DX001 (ip), vehicle: carboxymethylcellulose (CMC)
[11] = dose: 100.0 mg/kg/injection, schedule: Q04DX002 (ip), vehicle: saline with Tween-80
[12] = dose: 200.0 mg/kg/injection, schedule: Q04DX002 (ip), vehicle: saline with Tween-80
[13] = dose: 400.0 mg/kg/injection, schedule: Q04DX002 (ip), vehicle: saline with Tween-80
[14] = dose: 50.0 mg/kg/injection, schedule: Q04DX003 (ip), vehicle: saline
[15] = dose: 100.0 mg/kg/injection, schedule: Q01DX001 (ip), vehicle: saline
[16] = dose: 200.0 mg/kg/injection, schedule: Q01DX001 (ip), vehicle: saline
[17] = dose: 400.0 mg/kg/injection, schedule: Q01DX001 (ip), vehicle: saline
[18] = dose: 25.0 mg/kg/injection, schedule: Q01DX009 (ip), vehicle: Klucel (hydroxypropylcellulose) (HPC)
[19] = dose: 100.0 mg/kg/injection, schedule: Q04DX003 (ip), vehicle: Klucel (hydroxypropylcellulose) (HPC)
[20] = dose: 200.0 mg/kg/injection, schedule: Q04DX003 (ip), vehicle: Klucel (hydroxypropylcellulose) (HPC)
[21] = dose: 400.0 mg/kg/injection, schedule: Q04DX003 (ip), vehicle: Klucel (hydroxypropylcellulose) (HPC)

Measured: T/C

O=[N+]([O-])/C=C/c1ccc2ccccc2c1
inactive: dose: 12.5 mg/kg/injection, schedule: Q01DX009 (ip), vehicle: carboxymethylcellulose (CMC) 104 % of control | dose: 25.0 mg/kg/injection, schedule: Q01DX009 (ip), vehicle: carboxymethylcellulose (CMC) 101 % of control | [1] 107 % of control | dose: 50.0 mg/kg/injection, schedule: Q01DX009 (ip), vehicle: carboxymethylcellulose (CMC) 100 % of control | [2] 100 % of control | [3] 104 % of control | dose: 100.0 mg/kg/injection, schedule: Q01DX009 (ip), vehicle: carboxymethylcellulose (CMC) 101 % of control | [4] 91 % of control | [5] 93 % of control | [6] 96 % of control

Nc1nc(/C=C/C=C/c2ccccc2)c(CCCCc2ccccc2)c(=O)[nH]1
inactive: dose: 25.0 mg/kg/injection, schedule: Q01DX001 (ip), vehicle: Klucel (hydroxypropylcellulose) (HPC) 94 % of control | dose: 50.0 mg/kg/injection, schedule: Q01DX001 (ip), vehicle: Klucel (hydroxypropylcellulose) (HPC) 98 % of control | [7] 96 % of control

CCCCCCCCCCCC[N+]1(C)CC[N+](C)(CCCCCCCCCCCC)CC1 (configuration not stated)
inactive: dose: 100.0 mg/kg/injection, schedule: Q04DX002 (ip), vehicle: other 105 % of control | dose: 200.0 mg/kg/injection, schedule: Q04DX002 (ip), vehicle: other 101 % of control

CCC(=O)C(C)C(=O)Nc1ccccc1 (configuration not stated)
inactive: [8] 102 % of control | [9] 94 % of control | [10] 100 % of control

CCCCCc1[nH]c(=O)[nH]c(=O)c1N=Nc1ccccc1
inactive: dose: 100.0 mg/kg/injection, schedule: Q01DX001 (ip), vehicle: saline with Tween-80 98 % of control | dose: 200.0 mg/kg/injection, schedule: Q01DX001 (ip), vehicle: saline with Tween-80 97 % of control | dose: 400.0 mg/kg/injection, schedule: Q01DX001 (ip), vehicle: saline with Tween-80 100 % of control

O=C1CC(Sc2ccccc2)C(=O)N1c1ccccc1 (configuration not stated)
inactive: [3] 104 % of control | [5] 100 % of control | dose: 400.0 mg/kg/injection, schedule: Q01DX009 (ip), vehicle: Klucel (hydroxypropylcellulose) (HPC) 107 % of control

CCC[CH2][Sn](=[O])[OH]
inactive: [11] 91 % of control | [12] 91 % of control | [13] 94 % of control

O=[N+]([O-])c1ccc2c(N=Nc3c(O)ccc4ccccc34)c(O)cc(S(=O)(=O)O)c2c1
inactive: [14] 98 % of control | [15] 92 % of control | [16] 92 % of control | dose: 200.0 mg/kg/injection, schedule: Q04DX003 (ip), vehicle: saline 92 % of control

O=c1cc(Oc2ccccc2)[nH]c(=O)[nH]1
inactive: dose: 65.0 mg/kg/injection, schedule: Q01DX001 (ip), vehicle: Klucel (hydroxypropylcellulose) (HPC) 112 % of control | dose: 130.0 mg/kg/injection, schedule: Q01DX001 (ip), vehicle: Klucel (hydroxypropylcellulose) (HPC) 93 % of control | dose: 260.0 mg/kg/injection, schedule: Q01DX001 (ip), vehicle: Klucel (hydroxypropylcellulose) (HPC) 93 % of control

CCC1C(=O)OC2OC(c3ccccc3)(c3ccccc3)NC21 (configuration not stated)
inactive: [8] 88 % of control | [9] 88 % of control | [10] 90 % of control

CC1CCC2C(CCC3CCCCC32)C1 (configuration not stated)
inactive: [15] 107 % of control | [16] 107 % of control

O=N[O-].O=N[O-].[Co].[NH-]CCN(CC[NH-])CC[NH-]
inactive: dose: 50.0 mg/kg/injection, schedule: Q01DX001 (ip), vehicle: saline 108 % of control

Cc1cc(C)c(NC(C)C)c(C)c1N
inactive: dose: 50.0 mg/kg/injection, schedule: Q04DX002 (ip), vehicle: Klucel (hydroxypropylcellulose) (HPC) 92 % of control | [15] 104 % of control | dose: 100.0 mg/kg/injection, schedule: Q04DX002 (ip), vehicle: Klucel (hydroxypropylcellulose) (HPC) 92 % of control | [16] 92 % of control | dose: 200.0 mg/kg/injection, schedule: Q04DX002 (ip), vehicle: Klucel (hydroxypropylcellulose) (HPC) 95 % of control | [17] 93 % of control

O=C(O)c1cccc(Cl)c1F
inactive: dose: 50.0 mg/kg/injection, schedule: Q04DX002 (ip), vehicle: saline with Tween-80 97 % of control | [11] 97 % of control and 107 % of control | [12] 97 % of control

COc1ccccc1CN1CCCN(Cc2ccccc2OC)C1c1ccc(N(CCCl)CCCl)cc1Cl
inactive: dose: 50.0 mg/kg/injection, schedule: Q01DX001 (ip), vehicle: carboxymethylcellulose (CMC) 95 % of control | [8] 101 % of control | [9] 98 % of control | [10] 95 % of control

Cc1cnc2c(NC(=O)CCl)nn(C)c2n1
inactive: [18] 98 % of control | [1] 93 % of control | [3] 93 % of control and 91 % of control | [19] 91 % of control | [20] 93 % of control

Cc1ccc2nc(C#N)c(C#N)nc2c1
inactive: dose: 6.25 mg/kg/injection, schedule: Q01DX009 (ip), vehicle: Klucel (hydroxypropylcellulose) (HPC) 106 % of control | dose: 12.5 mg/kg/injection, schedule: Q01DX009 (ip), vehicle: Klucel (hydroxypropylcellulose) (HPC) 97 % of control | [18] 95 % of control and 89 % of control

COC1(c2ccccc2)CN(Cc2ccccc2)CCO1 (configuration not stated)
inactive: [3] 95 % of control | [5] 98 % of control

N#Cc1c(/N=C/c2ccccc2Cl)sc2c1CCC2
inactive: [11] 91 % of control | [12] 105 % of control | [13] 91 % of control

C[n+]1nc2ccccc2c(=Nc2ccccc2[N+](=O)[O-])[n-]1
inactive: [7] 93 % of control | dose: 200.0 mg/kg/injection, schedule: Q01DX001 (ip), vehicle: Klucel (hydroxypropylcellulose) (HPC) 94 % of control | dose: 400.0 mg/kg/injection, schedule: Q01DX001 (ip), vehicle: Klucel (hydroxypropylcellulose) (HPC) 94 % of control

O=C(O)CNc1cccc([N+](=O)[O-])c1
inactive: dose: 65.0 mg/kg/injection, schedule: Q01DX009 (ip), vehicle: Klucel (hydroxypropylcellulose) (HPC) 100 % of control | [3] 100 % of control | [19] 98 % of control | dose: 150.0 mg/kg/injection, schedule: Q01DX009 (ip), vehicle: Klucel (hydroxypropylcellulose) (HPC) 94 % of control | [20] 93 % of control | [21] 101 % of control

CC(=O)CCC(C#N)c1ccccc1 (configuration not stated)
inactive: dose: 25.0 mg/kg/injection, schedule: Q04DX002 (ip), vehicle: saline 104 % of control | dose: 50.0 mg/kg/injection, schedule: Q04DX002 (ip), vehicle: saline 107 % of control | dose: 100.0 mg/kg/injection, schedule: Q04DX002 (ip), vehicle: saline 93 % of control and 111 % of control

Nc1ccc(S(=O)(=O)c2ccc(N)cc2)cc1
inactive: [2] 100 % of control | [19] 96 % of control | [4] 97 % of control | [20] 101 % of control | [6] 107 % of control | [21] 101 % of control

O=[N+]([O-])c1cc([As](=O)(O)O)ccc1O
inactive: dose: 6.25 mg/kg/injection, schedule: Q04DX003 (ip), vehicle: saline 100 % of control | dose: 12.5 mg/kg/injection, schedule: Q04DX003 (ip), vehicle: saline 100 % of control | dose: 25.0 mg/kg/injection, schedule: Q04DX003 (ip), vehicle: saline 92 % of control and 100 % of control | [14] 106 % of control | dose: 100.0 mg/kg/injection, schedule: Q04DX003 (ip), vehicle: saline 105 % of control

CCOC(O)C(F)(F)F (configuration not stated)
inactive: dose: 50.0 mg/kg/injection, schedule: Q01DX015 (ip), vehicle: saline 93 % of control | [15] 98 % of control | dose: 100.0 mg/kg/injection, schedule: Q01DX009 (ip), vehicle: acetone 103 % of control | dose: 100.0 mg/kg/injection, schedule: Q01DX015 (ip), vehicle: saline 96 % of control | [16] 112 % of control | dose: 200.0 mg/kg/injection, schedule: Q01DX009 (ip), vehicle: acetone 102 % of control | dose: 200.0 mg/kg/injection, schedule: Q01DX015 (ip), vehicle: saline 88 % of control | [17] 102 % of control
